Values quoted from earlier work in US20060069069A1, “Methods and compositions for the administration of calcium chelators, bisphosponates and/or citrate compounds and their pharmaceutical uses” (Nanobac Pharmaceuticals, Inc., priority 2004, published 2006).

Tested on: bone resorption
Settings: versus etidronate; both in vitro and in vivo

NCCCC(O)(P(=O)(O)O)P(=O)(O)O [alendronate]
potency relative to etidronate for the prevention of bone resorption: approximately 700 fold
